Publication PMC10177692, “Novel topoisomerase II/EGFR dual inhibitors: design, synthesis and docking studies of naphtho[2′,3′:4,5]thiazolo[3,2-a]pyrimidine hybrids as potential anticancer agents with apoptosis inducing activity” (Journal of Enzyme Inhibition and Medicinal Chemistry, 2023)
Like-named read-outs stand apart in the source and are kept apart here.

Columns and labels:
A549 = test: MTT anti-proliferative assay; format: cell-based, human; conditions: for IC50: Homo sapiens, A549, MTT, 24 h, mean ± SE of three experiments, read-out: IC50 (µM) ± S.E. A549
Procedure: (§1) The culture media were supplemented with 10% heat inactivated foetal bovine serum (FBS, HyClone, Thermo Scientific) and antibiotics (100 U/ml penicillin and 100 µg/ml streptomycin, HyClone, Thermo Scientific). The cells were incubated in a humidified atmosphere containing 5% CO2 (Heracell VIOS CO2 incubator, Thermo Scientific) in air at 37 °C.
(§2) MTT reagent, at volume equal to 10% of the culture medium volume, was added to the cultured cells and to the blank wells. The culture plates were re-incubated for 2–4 h depending on cell type and density. After the incubation period, culture plates were restored from the incubator and the obtained formazan crystals were dissolved in acidified isopropanol with continuous shaking using plate shaker (MaxQ 2000, Thermo Fisher Scientific Inc., MI, USA) at room temperature. Absorbance was measured spectrophotometrically at wavelength 570 nm using a plate reader (Stat FaxR 4200, Awareness Technology, Inc., FL, USA). […] Three independent experiments were performed for each compound and Mean ± SE were calculated.

HCT-116 = test: MTT anti-proliferative assay; format: cell-based, human; conditions: for IC50: Homo sapiens, HCT-116, MTT, 24 h, mean ± SE of three experiments, read-out: IC50 (µM) ± S.E. HCT-116
Procedure: as §1, §2

MCF-7 = test: MTT anti-proliferative assay; format: cell-based, human; conditions: for IC50: Homo sapiens, MCF7
Procedure: as §1, §2

topoisomerase IIα = biological target: T1, topoisomerase IIα (Homo sapiens, UniProt P11388); test: Topoisomerase IIα inhibitory activity (ELISA kit); format: cell-based; conditions: MCF-7 cell line; for % inhibition of topoisomerase IIα activity: compounds at their IC50, compared to control; for concentration of topoisomerase IIα: compounds at their IC50, control 3.663 ± 0.09 ng/ml
T1 construct: it decreases the concentration of topoisomerase iIα in MCF-7 cell line to 1.043 ± 0.10 ng/ml; endogenous in cells; host or cells: MCF-7
Procedure: Biotin-conjugated antibody was added to each well followed by incubation at 37 °C for 1 h, then the plates were aspirated. Avidin conjugated Horseradish Peroxidase (HRP avidin) solution was added to each well, incubated again at 37 °C for 1 h. TMB substrate was added to the wells and the plate was incubated at 37 °C for 30 min at dark place. The absorbance was read using spectrophotometer at a wavelength of 450 nm.

topoisomerase II = biological target: T2, topoisomerase II (Homo sapiens, UniProt P11388); test: DNA topo II inhibition assay (kDNA, agarose gel); format: biochemical; conditions: 10 µM, with topo II
T2 construct: purchased Topogen, USA
Procedure: Using the procedure outlined in topoisomerase II Drug Screening Kit (Topogen, USA), the effect of 6a, 6c and 6i on topoisomerase II inhibition and the effectiveness of catenated/decatenated kDNA formation were examined. The reaction mixture includes 10 mM MgCl2, 50 mM Tris-HCl, 0.5 mM dithiothreitol, […]/ml bovine serum albumin, 200–300 ng of kDNA and topoisomerase II. […] After the reaction samples were incubated for 30 min at 37 °C, the reaction was stopped by adding […] of a stop buffer containing 10% (w/v) SDS and […] of 0.5 mg/ml proteinase followed by incubating the mixture for 10 min at 37 °C. The reaction mixture was separated by 1% agarose gel and examined after being stained with ethidium bromide.

EGFR = biological target: T3, EGFR (Homo sapiens, UniProt P00533); test: EGFR kinase assay kit; format: biochemical; conditions: mean ± SE
T3 construct: purchased BPS Bioscience, San Diego, CA, USA
Procedure: The kinase activity of EGFR was assessed for 6a, 6c and 6i hybrids using EGFR kinase assay kit (BPS Bioscience, San Diego, CA, USA) based on the manufacturer’s instructions. Three independent experiments were performed for each compound and Mean ± SE were calculated.

Bax = Bax level ELISA in MCF-7 cells; format: cell-based, human; conditions: for Bax Conc.(pg/ml): MCF-7, at IC50, 24 h, control 83.16 ± 6.2; for Bax FLD: MCF-7, at IC50, fold of control cells
Procedure: (§3) MCF-7 cells were cultured in DMEM supplied with 10% FBS and incubated in 5% CO2 in air at 37 °C. […] Cell lysate was diluted using standard diluent buffer over the range of assay. Bax and Bcl-2 content in the lysate was assessed using human Bax ELISA kit (DRG, USA) and Bcl-2 ELISA Kit (Zymed Laboratories, Invitrogen Immuno-detection, Canada), respectively, according to the manufacturer’s instructions for each kit. The results were expressed as Mean ± SE of three independent experiments.

Bcl-2 = Bcl-2 level ELISA in MCF-7 cells; format: cell-based, human; conditions: for Bcl-2 Conc.(ng/ml): MCF-7, at IC50, 24 h, control 6.56 ± 0.22; for Bcl-2 FLD: MCF-7, at IC50, fold of control cells
Procedure: as §3

caspase-9 = test: Caspase-9 ELISA in MCF-7 cells; format: cell-based, human; conditions: for Caspase 9 Conc.(pg/ml): MCF-7, at IC50, control 4.51 ± 0.29
Procedure: The effect of 6a, 6c and 6i hybrids on caspase-7 and −9 levels in MCF-7 cell line was measured using Human Caspase-7 ELISA Kit (BioVision Inc., Milpitas, CA 95035 USA) and Human Caspase-9 ELISA Kit (EIA-4860, DRG, USA), respectively, and according to the manufacturer’s instructions. The results were expressed as Mean ± SE of three independent experiments.

MCF-7 cells = test: In vitro DNA flow cytometry (cell cycle analysis); format: cell-based, human; conditions: MCF-7, at IC50, 24 h; for DNA content %Pre-G1: control 1.89; for DNA content %G2/M: control 7.68; for DNA content %S: control 35.09; for DNA content %G0-G1: control 57.23
Procedure: MCF-7 cells were seeded at density of 2 × 10^5 into each well of a 6-well plate. The cells were maintained in Dulbecco’s Modified Eagle’s Medium (DMEM), supplied with 10% foetal bovine serum, and incubated in a humidified atmosphere containing 5% CO2 in air for 24 h at 37 °C. The incubation medium was replaced with a fresh one containing the synthesised hybrids 6a and 6i at their IC50 in DMSO (1% v/v). The cell plates were incubated for 24 h. The cells were washed twice with cold phosphate buffered saline (PBS) then fixed with 70% ice-cold ethanol. Cells washed with PBS at 37 °C for 30 min and recovered by centrifugation at 2000 rpm for 5 min. Cells were stained using DNA fluorochrome propidium iodide (PI). The plates were incubated at room temperature for 20 min in a dark place. Then the cells were investigated with a FACS Calibre flow cytometer (Becton Dickinson, Heidelberg, Germany)[48].

[1] = MCF-7, concentration used for treatment, read-out: IC50 µM (Table 4)
[2] = MCF-7, concentration used for treatment, read-out: IC50 (Table 2)
[3] = MCF-7, concentration used for treatment, read-out: IC50 (Table 3)
[4] = MTT, 24 h, mean ± SE of three experiments, read-out: IC50 (µM) ± S.E. MCF-7

T1 sequence (P11388 whole entry): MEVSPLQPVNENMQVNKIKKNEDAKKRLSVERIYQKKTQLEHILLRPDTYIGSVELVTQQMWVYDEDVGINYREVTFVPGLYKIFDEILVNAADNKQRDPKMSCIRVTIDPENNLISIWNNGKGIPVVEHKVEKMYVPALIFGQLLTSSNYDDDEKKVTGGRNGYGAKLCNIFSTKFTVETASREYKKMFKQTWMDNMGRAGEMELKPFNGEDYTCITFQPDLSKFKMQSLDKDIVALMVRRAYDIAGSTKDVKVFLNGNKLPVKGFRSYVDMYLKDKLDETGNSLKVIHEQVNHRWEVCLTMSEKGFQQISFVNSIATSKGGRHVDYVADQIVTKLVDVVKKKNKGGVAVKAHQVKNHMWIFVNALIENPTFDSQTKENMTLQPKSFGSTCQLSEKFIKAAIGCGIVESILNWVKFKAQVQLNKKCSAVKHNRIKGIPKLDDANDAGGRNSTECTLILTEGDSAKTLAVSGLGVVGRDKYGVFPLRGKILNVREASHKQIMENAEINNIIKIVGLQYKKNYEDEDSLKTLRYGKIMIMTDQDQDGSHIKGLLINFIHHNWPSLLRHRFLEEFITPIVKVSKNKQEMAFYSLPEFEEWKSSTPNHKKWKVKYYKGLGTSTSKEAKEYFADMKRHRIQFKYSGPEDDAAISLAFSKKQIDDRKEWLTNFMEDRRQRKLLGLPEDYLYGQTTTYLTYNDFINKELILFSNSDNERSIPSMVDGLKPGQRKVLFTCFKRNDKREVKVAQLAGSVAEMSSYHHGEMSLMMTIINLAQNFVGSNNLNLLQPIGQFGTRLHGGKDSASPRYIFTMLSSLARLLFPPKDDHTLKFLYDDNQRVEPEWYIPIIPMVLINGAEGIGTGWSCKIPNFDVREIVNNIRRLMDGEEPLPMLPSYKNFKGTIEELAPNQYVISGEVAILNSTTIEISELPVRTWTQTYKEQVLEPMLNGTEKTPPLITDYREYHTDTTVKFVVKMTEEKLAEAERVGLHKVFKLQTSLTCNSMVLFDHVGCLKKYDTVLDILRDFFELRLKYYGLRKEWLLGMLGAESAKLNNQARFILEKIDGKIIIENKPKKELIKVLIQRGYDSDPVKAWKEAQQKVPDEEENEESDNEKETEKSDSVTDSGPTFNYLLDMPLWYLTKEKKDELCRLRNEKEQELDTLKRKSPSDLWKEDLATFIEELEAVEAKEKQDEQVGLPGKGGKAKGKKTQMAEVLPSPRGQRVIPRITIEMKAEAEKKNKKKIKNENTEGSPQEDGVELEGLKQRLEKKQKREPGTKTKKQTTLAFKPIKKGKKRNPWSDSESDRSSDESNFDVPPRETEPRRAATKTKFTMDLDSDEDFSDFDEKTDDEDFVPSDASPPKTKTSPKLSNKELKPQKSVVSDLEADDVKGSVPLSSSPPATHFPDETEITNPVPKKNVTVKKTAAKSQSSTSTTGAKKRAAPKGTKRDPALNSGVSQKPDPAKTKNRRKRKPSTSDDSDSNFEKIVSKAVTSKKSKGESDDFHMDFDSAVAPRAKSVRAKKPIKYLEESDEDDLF
T2 sequence (P11388 whole entry): as above
T3 sequence (P00533 25-1210): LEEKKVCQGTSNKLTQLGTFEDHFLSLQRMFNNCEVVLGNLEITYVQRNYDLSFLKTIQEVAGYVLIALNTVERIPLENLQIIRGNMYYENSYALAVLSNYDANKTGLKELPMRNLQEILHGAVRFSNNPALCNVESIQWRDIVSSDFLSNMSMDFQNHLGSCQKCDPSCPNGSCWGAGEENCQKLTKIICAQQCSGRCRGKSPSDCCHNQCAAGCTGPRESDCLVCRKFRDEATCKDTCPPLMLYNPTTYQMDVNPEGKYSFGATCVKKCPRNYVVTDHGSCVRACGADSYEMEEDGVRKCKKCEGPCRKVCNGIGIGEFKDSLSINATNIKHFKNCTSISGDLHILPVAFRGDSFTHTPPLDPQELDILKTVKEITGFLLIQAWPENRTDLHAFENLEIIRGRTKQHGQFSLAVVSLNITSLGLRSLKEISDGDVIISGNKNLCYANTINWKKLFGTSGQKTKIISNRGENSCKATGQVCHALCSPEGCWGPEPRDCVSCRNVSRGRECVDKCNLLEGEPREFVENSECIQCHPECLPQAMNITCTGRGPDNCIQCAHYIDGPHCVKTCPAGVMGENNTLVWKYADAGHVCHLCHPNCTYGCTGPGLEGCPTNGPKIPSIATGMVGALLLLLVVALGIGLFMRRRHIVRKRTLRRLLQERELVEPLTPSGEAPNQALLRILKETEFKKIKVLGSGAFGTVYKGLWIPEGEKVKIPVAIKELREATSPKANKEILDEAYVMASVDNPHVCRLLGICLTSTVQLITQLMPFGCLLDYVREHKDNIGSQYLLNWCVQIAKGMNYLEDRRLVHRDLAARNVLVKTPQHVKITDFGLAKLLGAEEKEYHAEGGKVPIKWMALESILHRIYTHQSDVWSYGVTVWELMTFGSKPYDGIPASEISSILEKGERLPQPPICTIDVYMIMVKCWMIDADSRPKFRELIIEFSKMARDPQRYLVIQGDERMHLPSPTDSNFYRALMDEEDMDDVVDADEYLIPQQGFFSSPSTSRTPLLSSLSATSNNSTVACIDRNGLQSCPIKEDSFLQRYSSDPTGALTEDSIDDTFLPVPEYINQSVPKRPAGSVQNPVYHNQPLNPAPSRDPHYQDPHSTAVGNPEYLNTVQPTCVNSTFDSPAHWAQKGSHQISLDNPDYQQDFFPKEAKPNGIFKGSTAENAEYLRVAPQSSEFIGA

Compound	IC50 (A549)	IC50 (HCT-116)	IC50 (MCF-7; [1])	IC50 (MCF-7; [2])	IC50 (MCF-7; [3])	IC50 (MCF-7; [4])	% inhibition of topoisomerase IIα activity (topoisomerase IIα)	concentration of topoisomerase IIα (topoisomerase IIα)	linear DNA formation from catenated kDNA (topoisomerase II)	Bax Conc.(pg/ml) (Bax)	Bax FLD (Bax)	Bcl-2 Conc.(ng/ml) (Bcl-2)	Bcl-2 FLD (Bcl-2)	Caspase 9 Conc.(pg/ml) (caspase-9)	DNA content %Pre-G1 (MCF-7 cells)	DNA content %G2/M (MCF-7 cells)	DNA content %S (MCF-7 cells)	DNA content %G0-G1 (MCF-7 cells)	also measured
COc1ccc(-c2nc3sc4c(n3c(=O)c2C#N)C(=O)c2ccccc2C4=O)cc1 [Compound 6a, 2–(4-Methoxyphenyl)-4,6,11-trioxo-6,11-dihydro-4H-naphtho[2′,3′:4,5]-thiazolo[3,2-a]pyrimidine-3-carbonitrile]	2.81 ± 0.18 µM	3.58 ± 0.24 µM	3.34 µM	3.34 µM	3.34 µM	3.34 ± 0.21 µM	35.81%	2.351 ± 0.21 ng/mL	the production of linear DNA was not noticed	436.1 ± 5.1 pg/mL	5.24 fold	3.99 ± 0.24 ng/mL	0.61 fold	21.17 ± 0.38 pg/mL	33.41%	34.78%	28.94%	36.28%	IC50 (EGFR; read-out: EGFR inhibitory activity IC50): 16 ± 0.47 nM; Caspase 9 FLD (caspase-9; MCF-7, at IC50, fold of control): 4.69 fold
N#Cc1c(-c2ccc([N+](=O)[O-])cc2)nc2sc3c(n2c1=O)C(=O)c1ccccc1C3=O [Compound 6i, 2–(4-Nitrophenyl)-4,6,11-trioxo-6,11-dihydro-4H-naphtho[’',’':4,5]thiazolo-[3,2-a]pyrimidine-3-carbonitrile]	1.55 ± 0.13 µM	2.29 ± 0.18 µM	1.79 µM	1.79 µM	1.79 µM	1.79 ± 0.11 µM	71.50%	1.043 ± 0.10 ng/mL	the production of linear DNA was not noticed	581.5 ± 8.7 pg/mL	6.99 fold	3.64 ± 0.08 ng/mL	0.55 fold	32.29 ± 0.33 pg/mL	45.26%	2.89%	51.17%	45.94%	fold superior activity than Dox (A549; A549, ratio of IC50 values): 3.19 fold; fold the activity of erlotinib (A549; A549, ratio of IC50 values): 3.35 fold; fold superior activity than Dox (HCT-116; HCT-116, ratio of IC50 values): 2.96 fold; fold the activity of erlotinib (HCT-116; HCT-116, ratio of IC50 values): 3.77 fold; fold superior activity than Dox (MCF-7; MCF-7, ratio of IC50 values): 3.13 fold; fold the activity of erlotinib (MCF-7; MCF-7, ratio of IC50 values): 4.05 fold; EGFR inhibitory activity IC50 (EGFR): nearly equipotent to that of erlotinib
